The IC50 is the midpoint of a concentration-inhibition curve.

Assay [1] deals with hSERT Q111N, G498T, P561G, Q562N. The experiment in a line: ASP^+ binding, four S2 mutants compared with WT. More on the design: species or system human. Conditions: P561G, and Q562N. How it is done:
HeLa cells were cultured in Dulbecco’s Modified Eagle’s Medium supplemented with 10% fetal bovine serum, 100 units/mL penicillin, and 100 μg/mL streptomycin at 37 °C in a humidified 5% CO2 incubator. Cells grown at ~70% confluence in a 6 cm culture dish were transfected with hSERT cDNA in pcDNA3.1 by lipofectamine 2000. Transfected cells were incubated for 12 h at 37 °C with 5% CO2 and then transferred into 96-well plates. After being grown for an additional 12–16 h, the cells were then assayed for APP^+ uptake or ASP^+ binding.
ASP^+ binding to SERT expressed on the cell surface was measured with digitonin-permeabilized cells as described previously. The cells expressing WT or mutants of hSERT were incubated with 10 μM ASP^+ in the presence of 25 μg/mL digitonin at 22 °C for 5 min. After removing excess ASP^+ by 3× rapid washing, ASP^+ fluorescence retained in the cell membrane was determined by fluorescence spectrometry.
hSERT mutants were generated using the Mut Express II Fast Mutagenesis kit (Vazyme, Nanjing, China). Briefly, forward and reverse primers were used to amplify a full-length hSERT. The PCR products were then digested with restriction enzymes, excised from agarose gels, and ligated into pcDNA3.1. All mutations were confirmed by full-length DNA sequencing.

Another assay has as its target T1, hSERT P499G (Homo sapiens, UniProt P31645, P499G).
T1 construct: forward and reverse primers were used to amplify a full-length hSERT; expressed in transfected cells; host or cells: HeLa cells, transient, pcDNA3.1
The experiment in a line: ASP^+ binding, hSERT P499G. The following applies: S2 site mutant, read-out: SYR IC50 for Binding.

Another assay relates to CUMS mice. The experiment in a line: Forced swim test (FST) in CUMS mice. The assay is classed as in vivo, mouse. The procedure: C57BL/6 adult (6–8 weeks, body weight, 18–22 g) male mice were maintained and handled in a standard condition at the Experimental Animal Center of Southern Medical University (Guangzhou, China). Animal use was approved by the Animal Use and Care Committee of Southern Medical University (approved code: SMUL2021177, approved date: 12 December 2021). The CUMS procedure was carried out according to a protocol described previously. Except for those in the control group, mice were randomly exposed to two mild unpredictable stressors per day for 3 weeks. The stressors included water deprivation, restraint, tilted cage, wet/no bedding, rotation, peppermint, noise, and inverted light off/on. Mice in the control group were group housed without any stressors throughout the procedure. […] NSFT was performed after 16 h food deprivation, as described previously. The mouse was placed in an open field (24 × 40 × 14 cm), where a new chow was put in the center, and the latency time to bite food was counted over 10 min. Home cage feeding within a 20 min period was measured after the test. FST was carried out according to a protocol described previously. The mouse was placed into a beaker (Bomex, Beijing, China) with a height of 18 cm filled with water (22 ± 1 °C) for 6 min. The immobile time was measured during minutes 2–6. TST was performed according to a previous description. The mouse was suspended from a hook that hung from a suspension bar by placing a piece of adhesive tape on its tail about 1 cm away from the tip. The immobile time during minutes 2–6 was measured.

For a further assay, the target named is T2, hSERT T497A (Homo sapiens, UniProt P31645, T497A).
T2 construct: forward and reverse primers were used to amplify a full-length hSERT; expressed in transfected cells; host or cells: HeLa cells, transient, pcDNA3.1
Briefly: APP^+ uptake, hSERT T497A. The assay is classed as cell-based. Conditions: S2 site mutant, read-out: SYR IC50 for Transport.

The target of another assay is T3, hSERT P560G (Homo sapiens, UniProt P31645, P560G).
T3 construct: forward and reverse primers were used to amplify a full-length hSERT; expressed in transfected cells; host or cells: HeLa cells, transient, pcDNA3.1
Briefly: APP^+ uptake, hSERT P560G. Type of assay: cell-based. Conditions: S2 site mutant, read-out: SYR IC50 for Transport.

A further assay has as its system c-Fos. Briefly: c-Fos immunohistochemistry in hippocampus of CUMS mice. The assay is classed as in vivo, mouse. Conditions: same dosage as fluoxetine (10 mg/kg i.p.). The text has this: Figure 8 SYR effects on the expression of c-Fos and synaptic proteins in the hippocampus. (A) Representative immunohistochemical images of c-Fos expression in the hippocampus with the indicated treatments. (B) Quantitative analysis for hippocampal c-Fos expression with various treatments. Protein expression level is expressed as a percentage of c-Fos fluorescence measured in the control group. Bars represent the mean ± SEM (n = 4). ** p < 0.01 compared with the control or CUMS group by one-way ANOVA followed by post hoc tests. (C) Representative immunoblots of the synaptic proteins BDNF, PSD-95, GluA1, and vGluT1 with various treatments. (D–G) Quantification of the expression of synaptic proteins BDNF (D), PSD-95 (E), GluA1 (F), and vGluT1 (G). The expression level is expressed as a percentage of the integrated density obtained from the control group. Bars represent the mean ± SEM (n = 4). * p < 0.05, ** p < 0.01 by one-way ANOVA followed by post hoc tests.
Mouse mPFC and hippocampal slices were prepared as previously described. Briefly, mice were deeply anesthetized with 4% pentobarbital sodium (Sigma-Aldrich, Saint Louis, MI, USA), and perfused transcardially with PBS, followed by 4% phosphate-buffered paraformaldehyde. […]

The target in the next assay is hSERT (Homo sapiens, UniProt P31645). Conditions: 22 °C.
The target of a further assay is T4, hSERT L565A (Homo sapiens, UniProt P31645, L565A).
T4 construct: forward and reverse primers were used to amplify a full-length hSERT; expressed in transfected cells; host or cells: HeLa
Briefly: APP^+ uptake, hSERT L565A. Type of assay: cell-based. Conditions: S2 site mutant, read-out: SYR IC50 for Transport.

Another assay relates to SERT Y107C/C109A. The experiment in a line: Cysteine accessibility, extracellular pathway: MTSET reactivity with Y107C/C109A. Type of assay: cell-based. Conditions: 10 μM ligand, compared with the control (MTSET alone).
The target of a further assay is T5, hSERT Y579A (Homo sapiens, UniProt P31645, Y579A).
T5 construct: forward and reverse primers were used to amplify a full-length hSERT; expressed in transfected cells; host or cells: HeLa
Briefly: ASP^+ binding, hSERT Y579A. Conditions: S2 site mutant, read-out: SYR IC50 for Binding.

Chain of hSERT (P31645 whole entry): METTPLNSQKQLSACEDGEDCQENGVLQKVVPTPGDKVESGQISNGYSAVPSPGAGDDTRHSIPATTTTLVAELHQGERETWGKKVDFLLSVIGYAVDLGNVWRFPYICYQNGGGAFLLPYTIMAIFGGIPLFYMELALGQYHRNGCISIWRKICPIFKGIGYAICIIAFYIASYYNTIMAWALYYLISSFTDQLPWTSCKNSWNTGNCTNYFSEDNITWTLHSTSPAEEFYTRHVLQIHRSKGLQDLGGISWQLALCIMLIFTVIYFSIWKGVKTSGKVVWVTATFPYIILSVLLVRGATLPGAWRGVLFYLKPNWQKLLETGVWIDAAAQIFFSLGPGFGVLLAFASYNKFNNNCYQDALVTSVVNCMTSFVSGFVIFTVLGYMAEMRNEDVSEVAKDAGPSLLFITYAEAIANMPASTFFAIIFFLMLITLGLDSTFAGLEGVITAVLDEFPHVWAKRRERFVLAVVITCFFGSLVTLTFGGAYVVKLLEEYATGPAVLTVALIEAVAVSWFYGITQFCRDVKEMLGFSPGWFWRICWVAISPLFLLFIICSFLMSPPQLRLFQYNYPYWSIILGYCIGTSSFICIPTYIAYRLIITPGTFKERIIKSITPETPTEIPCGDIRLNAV
T4 sequence (P31645 whole entry L565A): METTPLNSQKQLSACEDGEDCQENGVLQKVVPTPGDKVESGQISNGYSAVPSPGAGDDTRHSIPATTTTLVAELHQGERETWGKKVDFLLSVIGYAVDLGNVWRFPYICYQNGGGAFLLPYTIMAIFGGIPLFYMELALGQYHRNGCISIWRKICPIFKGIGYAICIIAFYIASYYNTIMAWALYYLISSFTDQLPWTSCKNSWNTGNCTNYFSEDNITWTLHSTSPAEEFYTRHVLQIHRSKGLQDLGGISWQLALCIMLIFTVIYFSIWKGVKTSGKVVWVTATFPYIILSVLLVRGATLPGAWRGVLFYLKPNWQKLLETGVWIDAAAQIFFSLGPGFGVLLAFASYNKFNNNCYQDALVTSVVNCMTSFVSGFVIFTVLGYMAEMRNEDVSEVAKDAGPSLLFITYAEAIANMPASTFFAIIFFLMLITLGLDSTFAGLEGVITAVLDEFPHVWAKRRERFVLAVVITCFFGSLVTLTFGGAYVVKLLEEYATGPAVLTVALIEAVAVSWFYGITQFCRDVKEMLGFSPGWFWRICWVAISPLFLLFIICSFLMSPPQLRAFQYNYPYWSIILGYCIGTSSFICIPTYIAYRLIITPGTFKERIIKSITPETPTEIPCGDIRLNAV
T5 sequence (P31645 whole entry Y579A): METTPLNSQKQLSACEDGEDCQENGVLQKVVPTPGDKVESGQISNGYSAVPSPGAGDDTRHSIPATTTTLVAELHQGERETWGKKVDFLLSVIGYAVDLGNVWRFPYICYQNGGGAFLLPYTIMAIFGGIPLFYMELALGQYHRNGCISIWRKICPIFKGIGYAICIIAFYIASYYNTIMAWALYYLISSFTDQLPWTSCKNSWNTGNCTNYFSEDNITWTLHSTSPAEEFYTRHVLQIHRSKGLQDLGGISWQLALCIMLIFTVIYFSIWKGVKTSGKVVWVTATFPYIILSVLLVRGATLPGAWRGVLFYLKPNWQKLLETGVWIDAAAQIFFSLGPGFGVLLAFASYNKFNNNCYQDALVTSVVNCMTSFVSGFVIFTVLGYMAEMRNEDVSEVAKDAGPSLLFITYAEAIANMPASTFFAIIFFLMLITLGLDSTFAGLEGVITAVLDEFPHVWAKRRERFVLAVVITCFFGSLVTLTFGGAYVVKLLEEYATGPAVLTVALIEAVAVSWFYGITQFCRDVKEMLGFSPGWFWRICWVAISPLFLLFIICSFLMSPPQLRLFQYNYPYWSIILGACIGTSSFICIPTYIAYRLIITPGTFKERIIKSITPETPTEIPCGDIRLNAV
T1 sequence (P31645 whole entry P499G): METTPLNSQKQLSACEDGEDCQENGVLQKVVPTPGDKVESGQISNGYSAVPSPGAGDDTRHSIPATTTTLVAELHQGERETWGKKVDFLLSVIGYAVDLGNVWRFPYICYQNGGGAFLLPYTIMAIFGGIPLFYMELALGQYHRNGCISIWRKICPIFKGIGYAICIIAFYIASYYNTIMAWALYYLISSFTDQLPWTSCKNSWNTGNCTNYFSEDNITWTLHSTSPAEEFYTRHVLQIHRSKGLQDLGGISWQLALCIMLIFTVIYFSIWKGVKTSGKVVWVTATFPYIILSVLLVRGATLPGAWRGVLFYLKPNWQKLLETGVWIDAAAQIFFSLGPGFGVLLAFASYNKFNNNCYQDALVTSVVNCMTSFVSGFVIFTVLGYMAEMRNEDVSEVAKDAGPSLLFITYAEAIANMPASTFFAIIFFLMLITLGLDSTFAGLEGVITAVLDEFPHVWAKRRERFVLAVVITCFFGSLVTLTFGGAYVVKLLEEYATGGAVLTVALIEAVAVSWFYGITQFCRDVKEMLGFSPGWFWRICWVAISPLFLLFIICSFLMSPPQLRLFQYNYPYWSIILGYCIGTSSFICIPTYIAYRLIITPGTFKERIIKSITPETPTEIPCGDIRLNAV
T3 sequence (P31645 whole entry P560G): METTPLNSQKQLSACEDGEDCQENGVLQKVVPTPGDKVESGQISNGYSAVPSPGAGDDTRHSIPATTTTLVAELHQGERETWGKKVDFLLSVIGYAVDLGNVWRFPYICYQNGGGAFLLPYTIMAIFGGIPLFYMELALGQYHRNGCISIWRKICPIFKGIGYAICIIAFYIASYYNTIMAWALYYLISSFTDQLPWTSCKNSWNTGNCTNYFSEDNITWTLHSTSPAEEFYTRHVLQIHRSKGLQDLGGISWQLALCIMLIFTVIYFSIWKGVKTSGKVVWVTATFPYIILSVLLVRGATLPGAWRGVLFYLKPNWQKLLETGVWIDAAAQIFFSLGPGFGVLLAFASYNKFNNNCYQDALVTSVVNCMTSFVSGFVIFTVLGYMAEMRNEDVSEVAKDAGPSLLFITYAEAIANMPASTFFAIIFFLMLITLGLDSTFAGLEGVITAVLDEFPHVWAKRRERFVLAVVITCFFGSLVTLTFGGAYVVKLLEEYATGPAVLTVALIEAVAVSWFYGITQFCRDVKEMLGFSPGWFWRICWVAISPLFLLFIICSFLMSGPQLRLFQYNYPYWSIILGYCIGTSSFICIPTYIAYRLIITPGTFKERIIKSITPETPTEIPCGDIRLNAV
T2 sequence (P31645 whole entry T497A): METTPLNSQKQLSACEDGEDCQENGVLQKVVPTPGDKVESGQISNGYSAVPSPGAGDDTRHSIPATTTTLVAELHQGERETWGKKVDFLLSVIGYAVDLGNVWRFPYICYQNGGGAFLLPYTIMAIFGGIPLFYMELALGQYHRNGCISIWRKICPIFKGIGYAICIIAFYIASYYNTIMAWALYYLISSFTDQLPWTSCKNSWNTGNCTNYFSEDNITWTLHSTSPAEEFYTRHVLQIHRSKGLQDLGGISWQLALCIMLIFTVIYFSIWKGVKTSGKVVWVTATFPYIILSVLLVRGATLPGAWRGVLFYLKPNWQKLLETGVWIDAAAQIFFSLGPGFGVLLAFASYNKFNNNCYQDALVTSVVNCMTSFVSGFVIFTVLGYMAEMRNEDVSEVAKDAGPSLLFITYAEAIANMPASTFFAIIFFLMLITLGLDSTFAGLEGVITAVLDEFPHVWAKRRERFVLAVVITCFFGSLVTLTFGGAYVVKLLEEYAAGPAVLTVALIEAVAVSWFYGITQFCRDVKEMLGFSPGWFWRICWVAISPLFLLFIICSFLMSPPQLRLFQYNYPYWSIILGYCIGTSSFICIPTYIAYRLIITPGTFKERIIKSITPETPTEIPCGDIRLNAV

Regarding `COc1cc([C@@H]2OC[C@@H]3[C@H]2CO[C@H]3c2cc(OC)c(O)c(OC)c2)cc(OC)c1O` [SYR, (-)-syringaresinol], the “SYR IC50 for ASP^+ binding relative to WT” value in assay [1] is on record as ≥ 100 fold. In addition, the IC50 on hSERT P499G came to 46.8 ± 2.35 µM; at hSERT T497A, 10.6 ± 2.4 µM; at hSERT P560G it was 5.99 ± 0.96 µM; on hSERT L565A, 9.98 ± 1.22 µM; at hSERT Y579A it was 28.62 ± 0.15 µM. The “reversal of behavioral abnormalities in FST” value with CUMS mice (5 mg/kg, i.p., once per day day 7 to 21) is “did not exhibit a significant response”. In addition, in the assay with CUMS mice (10 or 20 mg/kg (i.p.)), the “effect in FST” value is listed as “remarkable antidepressant-like effects”. In addition, the “CUMS-induced decrease in expression of c-Fos in the hippocampus” value with c-Fos is reported as “effectively alleviate”. In addition, the “effect on 5-HT-induced APP^+ efflux” value on hSERT (10 μM + 10 μM 5-HT) is given as “effectively blocked”. The “effect on basal APP^+ efflux” value on hSERT (10 μM, cells preloaded with APP^+) is recorded as “not by SYR”. Further, the “rate constant of MTSET reactivity with Y107C/C109A” value in the assay with SERT Y107C/C109A is “markedly increased”.

For the origin of these results see paper PMC11678425, “(-)-Syringaresinol Exerts an Antidepressant-like Activity in Mice by Noncompetitive Inhibition of the Serotonin Transporter” (Pharmaceuticals, 2024).
